Source: patent US4784955A, “Immunogen conjugates and the use thereof in a dihydropyridine assay” (Miles Inc., priority 1986, dated 1988)
Like-named read-outs stand apart in the source and are kept apart here.

Assays:
[1] = system: polyclonal antibodies prepared against the immunogen conjugates; experiment: Cross-reactivity with polyclonal antibodies prepared against the immunogen conjugates; format: binding
[2] = system: monoclonal antibody XIIIE82 /H8; experiment: Binding of radioactive Ca2+ channel blockers to monoclonal antibody XIIIE82 /H8-Sepharose 6MB beads; parameters: species or system mouse; conditions: for ability to bind to monoclonal antibody XIIIE82 /H8-Sepharose 6MB beads (in words): 1.0 nM concentration; for CPM Bound / fmoles of Ca2+ channel blocker specifically bound per μg of monoclonal antibody XIIIE82 /H8: [3H]calcium channel blocker 1.0 nM
Method: Various radioactive Ca^2+ channel blockers at a 1.0 nM concentration were tested for their ability to bind to monoclonal antibody XIIIE82 /H8-Sepharose 6MB beads.

[3] = system: New Zealand white rabbits; conditions: immunized rabbits
Text: In order to raise antibodies against the 1,4-hydropyridines, a bovine serum albumin-nifedipine iothiocyanate immunogen conjugate was used directly for immunization or was cross-linked with 0.04% glutaraldehyde for eight hours at room temperature prior to immunization of rabbits. In either case, the immunogen conjugate was emulsified in an equal volume of Freund's complete adjuvant.
New Zealand white rabbits were bled to obtain pre-immune sera and were then immunized intramuscularly and intradermally at multiple sites along the back and legs. Rabbits received 0.5 milligram (mg) of bovine serum albumin-nifedipine isothiocyanate immunogen conjugate in Freund's complete adjuvant on day 0 followed by 0.5 mg insults in Freund's incomplete adjuvant every 2-3 weeks. Rabbits were bled after their third immunization every two weeks. Blood was withdrawn from the ear vein, allowed to clot overnight at 4° C., and serum was isolated by centrifugation. In order to reduce the antibodies produced to bovine serum albumin, subsequent immunizations were carried out with keyhole limpet hemocyanin-nifedipine isothiocyanate immunogen conjugates. […]

[4] = system: 1,4-dihydropyridine-specific antibodies; experiment: 1,4-Dihydropyridine radioimmunoassay (dextran-coated charcoal separation), nitrendipine standard curve; format: binding; conditions: 20 pM [3H]nitrendipine; for % B/Bo: 60 min
Method: After a 1 hour incubation in the dark at room temperature, the assay tubes were transferred to an ice water bath for 10 min. […] After an additional 12 minutes in the ice bath, the assay tubes were centrifuged for 15 minutes at 850×g in a Beckman TJ-6 centrifuge. A 0.80 ml sample of the clear supernatant was then added to 10 ml of liquid scintillation fluid and counted in a Beckman LS8100 liquid scintillation counter. […] An alternate procedure for the RIA on human plasma samples involves the dilutions of standards in normal pooled human plasma (rather than in bovine serum albumin in saline, as described above) and the use of 0.2 ml aliquots of standard or human plasma samples.

[5] = system: monoclonal antibody XH42 /G1
[6] = target: XIIIE82 /H8-monoclonal antibody; experiment: Competitive binding assay according to the method of Muller, XIIIE82 /H8; parameters: species or system mouse; conditions: [3H]nitrendipine-XIIIE82 /H8-monoclonal antibody complex; read-out: average apparent dissociation constant (Kd)
Method: (§1) The affinity of the monoclonal antibodies of the present invention for [^3 H]nitrendipine was determined using a competitive binding assay according to the method of Muller (Muller, R., Methods in Enzylmology, 92, 589-601, 1983).

[7] = target: XH42 /Gl monoclonal antibody; experiment: Competitive binding assay according to the method of Muller, XH42 /Gl; parameters: species or system mouse; conditions: [3H]nitrendipine-XH42 /Gl monoclonal antibody complex; read-out: average apparent dissociation constant (kd)
Method: as §1

[8] = system: monoclonal antibody XIIIE82 /H8; experiment: Nifedipine radioimmunoassay using monoclonal antibody XIIIE82 /H8-Sepharose 6MB beads; conditions: 100 pM [3H]nitrendipine
[9] = nitrendipine standard 18.0 picograms/ml in final assay mixture
[10] = nitrendipine standard 36.0 picograms/ml
[11] = nitrendipine standard 72.0 picograms/ml
[12] = nitrendipine standard 180.0 picograms/ml
[13] = nitrendipine standard 360.0 picograms/ml
[14] = nitrendipine standard 720.0 picograms/ml
[15] = nitrendipine standard 1800.0 picograms/ml
[16] = nitrendipine standard 0.4 nanograms/ml in final assay mixture
[17] = nitrendipine standard 1.1 nanograms/ml
[18] = nitrendipine standard 1.8 nanograms/ml
[19] = nitrendipine standard 3.7 nanograms/ml
[20] = nitrendipine standard 11.0 nanograms/ml
[21] = nitrendipine standard 18.3 nanograms/ml
[22] = nitrendipine standard 37.4 nanograms/ml
[23] = nifedipine standard 3.7 nanograms/ml in final assay mixture
[24] = nifedipine standard 11.2 nanograms/ml
[25] = nifedipine standard 18.7 nanograms/ml
[26] = nifedipine standard 37.3 nanograms/ml
[27] = nifedipine standard 112.0 nanograms/ml
[28] = nifedipine standard 186.7 nanograms/ml
[29] = nifedipine standard 373.4 nanograms/ml
[30] = nifedipine standard 1866.8 nanograms/ml

In the case of COc1ccc(CCN(C)CCCC(C#N)(c2ccc(OC)c(OC)c2)C(C)C)cc1OC (centres unmarked) [verapamil], the “cross-reaction with the antibodies” value [1] is reported as “do not cross-react”.
With COCCOC(=O)C1=C(C)NC(C)=C(C(=O)OC(C)C)C1c1cccc([N+](=O)[O-])c1 (centres unmarked) [[^3 H]Nimodipine] the “ability to bind to monoclonal antibody XIIIE82 /H8-Sepharose 6MB beads (in words)” value (“ability to bind” for short) [2] was “specifically bind”, the “CPM Bound” value [2] was 57439 CPM and the “fmoles of Ca2+ channel blocker specifically bound per μg of monoclonal antibody XIIIE82 /H8” value [2] was 20.9 fmol/µg.
Keyhole limpet hemocyanin was tested, and the “time to antibody response” value [3] was 4 weeks and the “titer of antiserum of 1,4-dihydropyridine-specific antibodies” value [3] was “highest titer”.
With COc1ccc([C@@H]2Sc3ccccc3N(CCN(C)C)C(=O)[C@@H]2OC(C)=O)cc1 [[^3 H]Diltiazem] the “ability to bind” value [2] was “did not bind”, the “CPM Bound” value [2] was 225 CPM and the “fmoles of Ca2+ channel blocker specifically bound per μg of monoclonal antibody XIIIE82 /H8” value [2] was 0.1 fmol/µg.
In the case of COC(=O)C1=C(C)NC(C)=C(C(=O)OC(C)C)C1c1cccc2nonc12 (single isomer, unassigned) [[^3 H]PN200-110], the “ability to bind” value [2] is reported as “specifically bind”, the “CPM Bound” value [2] is reported as 9419 CPM and the “fmoles of Ca2+ channel blocker specifically bound per μg of monoclonal antibody XIIIE82 /H8” value [2] is reported as 4.8 fmol/µg.
With CCOC(=O)C1=C(C)NC(C)=C(C(=O)OC)C1c1cccc([N+](=O)[O-])c1 (centres unmarked) [Nitrendipine, 2,6-dimethyl-3-carboethoxy-5-carbomethoxy-4-(3-nitrophenyl)-1,4-dihydropyridine] the “Net CPM” value [4, 9] was 1492 CPM, the “% B/Bo” value [4, 9] was 85.4% and the “Net CPM” value [4, 10] was 1406 CPM. For the same compound, the “% B/Bo” value [4, 10] was 80.5%, the “Net CPM” value [4, 11] was 1024 CPM and the “% B/Bo” value [4, 11] was 58.6%. The “Net CPM” value [4, 12] was 673 CPM, the “% B/Bo” value [4, 12] was 38.5% and the “Net CPM” value [4, 13] was 482 CPM. For the same compound, the “% B/Bo” value [4, 13] was 27.6%, the “Net CPM” value [4, 14] was 346 CPM and the “% B/Bo” value [4, 14] was 19.8%. The “Net CPM” value [4, 15] was 225 CPM, the “% B/Bo” value [4, 15] was 12.9% and the “% B/Bo” value [5, 16] was 107.1%. For the same compound, the “Net CPM” value [5, 16] was 2043 CPM, the “% B/Bo” value [5, 17] was 87.8% and the “Net CPM” value [5, 17] was 1676 CPM. The “% B/Bo” value [5, 18] was 76.3%, the “Net CPM” value [5, 18] was 1456 CPM and the “% B/Bo” value [5, 19] was 60.2%. For the same compound, the “Net CPM” value [5, 19] was 1149 CPM, the “% B/Bo” value [5, 20] was 37.6% and the “Net CPM” value [5, 20] was 717 CPM. The “% B/Bo” value [5, 21] was 28.1%, the “Net CPM” value [5, 21] was 535 CPM and the “% B/Bo” value [5, 22] was 17.5%. For the same compound, the “Net CPM” value [5, 22] was 333 CPM.
With COC(=O)C1=C(C)NC(C)=C(C(=O)OC)C1c1ccccc1N=C=S [[^3 H]Nifedipine-Analog, 1,4-dihydro-2,6-dimethyl-4-(2-isothiocyanatophenyl)-3,5-pyridinedicarboxylic acid dimethyl ester] the “ability to bind” value [2] was “specifically bind”, the “CPM Bound” value [2] was 26000 CPM and the “fmoles of Ca2+ channel blocker specifically bound per μg of monoclonal antibody XIIIE82 /H8” value [2] was 18.8 fmol/µg.
With CCOC(=O)C1=C(C)NC(C)=C(C(=O)OC)C1c1cccc([N+](=O)[O-])c1 (centres unmarked) [[^3 H]Nitrendipine, 2,6-dimethyl-3-carboethoxy-5-carbomethoxy-4-(3-nitrophenyl)-1,4-dihydropyridine] the “ability to bind” value [2] was “specifically bind”, the “CPM Bound” value [2] was 59103 CPM and the “fmoles of Ca2+ channel blocker specifically bound per μg of monoclonal antibody XIIIE82 /H8” value [2] was 33.8 fmol/µg. It also gave a Kd [6] of 26 nM and a Kd [7] of 12.5 nM.
For COc1ccc([C@@H]2Sc3ccccc3N(CCN(C)C)C(=O)[C@@H]2OC(C)=O)cc1 [diltiazem], the “cross-reaction with the antibodies” value [1] was “do not cross-react”.
COC(=O)C1=C(C)NC(C)=C(C(=O)OC)C1c1ccccc1[N+](=O)[O-] [Nifedipine] was tested, and the “% B/Bo” value [8, 23] was 102.0%, the “Net CPM” value [8, 23] was 8010 CPM and the “% B/Bo” value [8, 24] was 98.2%. For the same compound, the “Net CPM” value [8, 24] was 7708 CPM, the “% B/Bo” value [8, 25] was 76.7% and the “Net CPM” value [8, 25] was 6027 CPM. For the same compound, the “% B/Bo” value [8, 26] was 50.9%, the “Net CPM” value [8, 26] was 3998 CPM and the “% B/Bo” value [8, 27] was 23.4%. For the same compound, the “Net CPM” value [8, 27] was 1837 CPM, the “% B/Bo” value [8, 28] was 14.5% and the “Net CPM” value [8, 28] was 1138 CPM. The “% B/Bo” value [8, 29] was 8.6%, the “Net CPM” value [8, 29] was 677 CPM and the “% B/Bo” value [8, 30] was 2.4%. For the same compound, the “Net CPM” value [8, 30] was 190 CPM.
For COc1ccc(CCN(C)CCCC(C#N)(c2ccc(OC)c(OC)c2)C(C)C)cc1OC (centres unmarked) [[^3 H]Verapamil], the “ability to bind” value [2] was “did not bind”, the “CPM Bound” value [2] was 234 CPM and the “fmoles of Ca2+ channel blocker specifically bound per μg of monoclonal antibody XIIIE82 /H8” value [2] was 0.2 fmol/µg.
